Literature values in US7799530B2, “Genetic polymorphisms associated with cardiovascular disorders and drug response, methods of detection and uses thereof” (Celera Corporation, priority 2005, dated 2010).

Assays:
rhabdomyolysis = conditions: in vivo; cited from earlier work
[1] = system: acute coronary events and LDL-C in subjects with average cholesterol levels; conditions: AFCAPS/TexCAPS; cited from earlier work

Compound | rhabdomyolysis-related deaths (rhabdomyolysis) | LDL-C reduction (average) [1] [%] | decrease in events [1] [%]
COCc1c(C(C)C)nc(C(C)C)c(/C=C/[C@@H](O)C[C@@H](O)CC(=O)O)c1-c1ccc(F)cc1 [cerevastatin] | relatively high level of rhabdomyolysis-related deaths |  | 
CC[C@H](C)C(=O)O[C@H]1C[C@@H](C)C=C2C=C[C@H](C)[C@H](CC[C@@H]3C[C@@H](O)CC(=O)O3)[C@H]21 [lovastatin] |  | 25 | 37
